# Experimental data taken from patent publication US10781224B2, “Bis(oxymethyl)phosphinic acid and biogenic metal salts thereof as regulators of plant growth and development” (priority 2016, dated 2020).
# Key:
# [1] = system: winter wheat (Vershin variety); assay: Winter wheat seed treatment with BHMPA salts: germinating power (length and mass of roots and sprouts); format: in vivo
# How it was run: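 Seeds (50 per Petri dish on two layers of filter paper) soaked 1 h in BHMPA or its Ca, Mg, Na, Co, Mn, Cu or Zn salts at 1·10^−6-1·10^−12%, with water controls. Germination energy read on day 4, germination on day 8 (wheat) or day 7 (rice, corn), as % means of four replicates. Germinating power taken as root and sprout length plus wet and dry mass per 100 seedlings.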
# rice (Diamant variety) = assay: Rice seed treatment with BHMPA salts: germination energy and germination rate; format: in vivo
# How it was run: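 Corn, winter wheat and rice seeds (50 per dish, on filter paper) were soaked for 1 h in BHMPA or its metal salts at 1·10^−6-1·10^−12%, with water as control. Germination energy was read on day 4 and germination rate on day 8 for wheat and day 7 for rice and corn, following GOST 12038-84, as the mean of four replicates.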
# [2] = all the experiments (1·10^−6% to 1·10^−12%)
# [3] = comparative study, 1·10^−12% solution
# [4] = rice seed treatment, solution 1 · 10^−9%
# [5] = seed treatment, concentration 1 · 10^−6%
# [6] = seed treatment, concentration 1 · 10^−7%
# [7] = seed treatment, concentration 1 · 10^−8%
# [8] = seed treatment, concentration 1 · 10^−9%
# [9] = seed treatment, concentration 1 · 10^−10%
# [10] = seed treatment, concentration 1 · 10^−11%
# [11] = seed treatment, concentration 1 · 10^−12%
structure (smiles),measurement,setting,value
"O=P([O-])(CO)CO.O=P([O-])(CO)CO.[Ca+2] [Ca-salt, Calcium BHMPA Salt]","Length, root",[1]; 1·10^−6% solution,7.1 cm
same,"Length, root, + % to control",[1]; 1·10^−6% solution,27%
same,"Length, sprout",[1]; 1·10^−6% solution,6.9 cm
same,"Length, sprout, + % to control",[1]; 1·10^−6% solution,19%
same,"Mass, dry, root",[1]; 1·10^−6% solution,0.45 g/100 plantlings
same,"Mass, dry, root, + % to control",[1]; 1·10^−6% solution,41%
same,"Mass, dry, sprout",[1]; 1·10^−6% solution,0.47 g/100 plantlings
same,"Mass, dry, sprout, + % to control",[1]; 1·10^−6% solution,9%
same,"Mass, wet, root",[1]; 1·10^−6% solution,4.16 g/100 plantlings
same,"Mass, wet, root, + % to control",[1]; 1·10^−6% solution,12%
same,"Mass, wet, sprout",[1]; 1·10^−6% solution,5.32 g/100 plantlings
same,"Mass, wet, sprout, + % to control",[1]; 1·10^−6% solution,5%
same,"Length, root",[1]; 1·10^−7% solution,7.4 cm
same,"Length, root, + % to control",[1]; 1·10^−7% solution,34%
same,"Length, sprout",[1]; 1·10^−7% solution,7.4 cm
same,"Mass, dry, root",[1]; 1·10^−7% solution,0.47 g/100 plantlings
same,"Mass, dry, root, + % to control",[1]; 1·10^−7% solution,47%
same,"Mass, dry, sprout",[1]; 1·10^−7% solution,0.55 g/100 plantlings
same,"Mass, dry, sprout, + % to control",[1]; 1·10^−7% solution,30%
same,"Mass, wet, root",[1]; 1·10^−7% solution,4.89 g/100 plantlings
same,"Mass, wet, root, + % to control",[1]; 1·10^−7% solution,32%
same,"Mass, wet, sprout",[1]; 1·10^−7% solution,5.57 g/100 plantlings
same,"Mass, wet, sprout, + % to control",[1]; 1·10^−7% solution,10%
same,"Length, root",[1]; 1·10^−8% solution,6.5 cm
same,"Length, root, + % to control",[1]; 1·10^−8% solution,18%
same,"Length, sprout",[1]; 1·10^−8% solution,6.4 cm
same,"Length, sprout, + % to control",[1]; 1·10^−8% solution,10%
same,"Mass, dry, root",[1]; 1·10^−8% solution,0.39 g/100 plantlings
same,"Mass, dry, root, + % to control",[1]; 1·10^−8% solution,22%
same,"Mass, dry, sprout",[1]; 1·10^−8% solution,0.45 g/100 plantlings
same,"Mass, dry, sprout, + % to control",[1]; 1·10^−8% solution,5%
same,"Mass, wet, root",[1]; 1·10^−8% solution,4.08 g/100 plantlings
same,"Mass, wet, root, + % to control",[1]; 1·10^−8% solution,10%
same,"Mass, wet, sprout",[1]; 1·10^−8% solution,5.32 g/100 plantlings
same,"Mass, wet, sprout, + % to control",[1]; 1·10^−8% solution,5%
same,"Length, root",[1]; 1·10^−9% solution,6.5 cm
same,"Length, root, + % to control",[1]; 1·10^−9% solution,18%
same,"Length, sprout",[1]; 1·10^−9% solution,6.5 cm
same,"Length, sprout, + % to control",[1]; 1·10^−9% solution,12%
same,"Mass, dry, root",[1]; 1·10^−9% solution,0.41 g/100 plantlings
same,"Mass, dry, root, + % to control",[1]; 1·10^−9% solution,28%
same,"Mass, dry, sprout",[1]; 1·10^−9% solution,0.48 g/100 plantlings
same,"Mass, dry, sprout, + % to control",[1]; 1·10^−9% solution,12%
same,"Mass, wet, root",[1]; 1·10^−9% solution,4.20 g/100 plantlings
same,"Mass, wet, root, + % to control",[1]; 1·10^−9% solution,13%
same,"Mass, wet, sprout",[1]; 1·10^−9% solution,5.36 g/100 plantlings
same,"Mass, wet, sprout, + % to control",[1]; 1·10^−9% solution,5.5%
same,"Length, root",[1]; 1·10^−10% solution,6.6 cm
same,"Length, root, + % to control",[1]; 1·10^−10% solution,20%
same,"Length, sprout",[1]; 1·10^−10% solution,6.5 cm
same,"Length, sprout, + % to control",[1]; 1·10^−10% solution,12%
same,"Mass, dry, root",[1]; 1·10^−10% solution,0.45 g/100 plantlings
same,"Mass, dry, root, + % to control",[1]; 1·10^−10% solution,41%
same,"Mass, dry, sprout",[1]; 1·10^−10% solution,0.53 g/100 plantlings
same,"Mass, dry, sprout, + % to control",[1]; 1·10^−10% solution,23%
same,"Mass, wet, root",[1]; 1·10^−10% solution,4.34 g/100 plantlings
same,"Mass, wet, root, + % to control",[1]; 1·10^−10% solution,17%
same,"Mass, wet, sprout",[1]; 1·10^−10% solution,5.41 g/100 plantlings
same,"Mass, wet, sprout, + % to control",[1]; 1·10^−10% solution,6.5%
same,"Length, root",[1]; 1·10^−11% solution,7.2 cm
same,"Length, root, + % to control",[1]; 1·10^−11% solution,31%
same,"Length, sprout",[1]; 1·10^−11% solution,6.9 cm
same,"Length, sprout, + % to control",[1]; 1·10^−11% solution,19%
same,"Mass, dry, root",[1]; 1·10^−11% solution,0.46 g/100 plantlings
same,"Mass, dry, root, + % to control",[1]; 1·10^−11% solution,44%
same,"Mass, dry, sprout",[1]; 1·10^−11% solution,0.54 g/100 plantlings
same,"Mass, dry, sprout, + % to control",[1]; 1·10^−11% solution,25.5%
same,"Mass, wet, root",[1]; 1·10^−11% solution,4.70 g/100 plantlings
same,"Mass, wet, root, + % to control",[1]; 1·10^−11% solution,27%
same,"Mass, wet, sprout",[1]; 1·10^−11% solution,5.50 g/100 plantlings
same,"Mass, wet, sprout, + % to control",[1]; 1·10^−11% solution,8%
same,"Length, root",[1]; 1·10^−12% solution,7.4 cm
same,"Length, root, + % to control",[1]; 1·10^−12% solution,34%
same,"Length, sprout",[1]; 1·10^−12% solution,7.9 cm
same,"Length, sprout, + % to control",[1]; 1·10^−12% solution,36%
same,"Mass, dry, root",[1]; 1·10^−12% solution,0.48 g/100 plantlings
same,"Mass, dry, root, + % to control",[1]; 1·10^−12% solution,50%
same,"Mass, dry, sprout",[1]; 1·10^−12% solution,0.59 g/100 plantlings
same,"Mass, dry, sprout, + % to control",[1]; 1·10^−12% solution,37%
same,"Mass, wet, root",[1]; 1·10^−12% solution,5.19 g/100 plantlings
same,"Mass, wet, root, + % to control",[1]; 1·10^−12% solution,40%
same,"Mass, wet, sprout",[1]; 1·10^−12% solution,6.55 g/100 plantlings
same,"Mass, wet, sprout, + % to control",[1]; 1·10^−12% solution,29%
same,increase in mass of sprouts,[1]; [2],5%-50%
same,increase in size of sprouts,[1]; [2],10%-36%
same,"Length, root",[1]; [3],9.7 cm
same,"Length, root, + % to control",[1]; [3],11%
same,"Length, sprout",[1]; [3],6.4 cm
same,"Length, sprout, + % to control",[1]; [3],3%
same,"Mass, dry, root",[1]; [3],0.66 g/100 plantlings
same,"Mass, dry, root, + % to control",[1]; [3],6%
same,"Mass, dry, sprout",[1]; [3],0.54 g/100 plantlings
same,"Mass, dry, sprout, + % to control",[1]; [3],6%
same,"Mass, wet, root",[1]; [3],5.03 g/100 plantlings
same,"Mass, wet, root, + % to control",[1]; [3],40%
same,"Mass, wet, sprout",[1]; [3],4.88 g/100 plantlings
same,"Mass, wet, sprout, + % to control",[1]; [3],23%
same,"Germination energy, %",rice (Diamant variety); [4],86.3%
same,"Germination rate, %",rice (Diamant variety); [4],93.3%
same,Germination energy,"rice (Diamant variety); rice, 1·10^−10% solution",85.0%
same,Germination rate,"rice (Diamant variety); rice, 1·10^−10% solution",92.0%
same,Germination energy,rice (Diamant variety); [5],75.9%
same,Germination rate,rice (Diamant variety); [5],81.0%
same,Germination energy,rice (Diamant variety); [6],76.0%
same,Germination rate,rice (Diamant variety); [6],83.3%
same,Germination energy,rice (Diamant variety); [7],79.3%
same,Germination rate,rice (Diamant variety); [7],85.0%
same,Germination energy,rice (Diamant variety); [8],82.0%
same,Germination rate,rice (Diamant variety); [8],87.0%
same,Germination energy,rice (Diamant variety); [9],85.0%
same,Germination rate,rice (Diamant variety); [9],92.0%
same,Germination energy,rice (Diamant variety); [10],83.3%
same,Germination rate,rice (Diamant variety); [10],89.3%
same,Germination energy,rice (Diamant variety); [11],78.3%
same,Germination rate,rice (Diamant variety); [11],84.3%
